In US20220402948A1, “EGFR INHIBITOR, COMPOSITION AND PREPARATION METHOD THEREFOR” (BETTA PHARMACEUTICALS CO., LTD., priority 2019, published 2022):

Tests used:
EGFRΔ19del/T790M/C797S = EGFRΔ19del/T790M/C797S (Homo sapiens, UniProt P00533, T790M/C797S, form not given); assay: EGFR Δ19del/T790M/C797S kinase test (mobility variation analysis, Caliper EZ Reader); format: biochemical; conditions: kinase enzymatic activity, Table 1
Protocol: (§1) Mobility variation analysis was performed to determine the affinity of the compound for EGFRΔ19del/T790M/C797S, EGFR WT and IGF1R. The enzymatic reaction scheme is as follows:
(§2) 1. Prepare 1*kinase buffer as follows.
(§3) 3. […] Prepare 2.5-fold final concentration of kinase solution with 1×Kinase buffer.
(§4) 4. Add 10 μL of 2.5-fold final concentration of kinase solution to the compound well and the positive control well; add 10 μL of 1×Kinase buffer to the negative control well.
(§5) 5. Centrifuge at 1000 rpm for 30 s, shake the reaction plate for well mixing, and then incubate at room temperature for 10 minutes.
(§6) 6. Prepare a mixture of ATP and Kinase substrate at 5/3-fold final concentration with 1×Kinase buffer.
(§7) 8. Centrifuge the 384-well plate at 1000 rpm for 30 s, shake it well and then incubate it at room temperature for corresponding time.
(§8) 9. Add 30 μL of stop detection solution to stop the kinase reaction, centrifuge at 1000 rpm for 30 s, and shake it well.
(§9) 10. Read conversion rate with Caliper EZ Reader.
(§10) % Inhibition=((Conversion%_max−Conversion%_sample)/(Conversion%_max−Conversion%_min))*100
(§11) Wherein: Conversion%_sample is the sample conversion rate reading; Conversion%_min: Mean value of negative control wells, representing the conversion rate reading of wells without enzymatic activity; Conversion%_max: Mean value of positive control wells, representing the conversion rate reading of wells without compound inhibition.
(§12) The dose-effect curve was fitted with concentration log value as X-axis and percentage inhibition rate as Y-axis. GraphPad Prism 5 analysis software was used for fitting Log (inhibitor) vs. response—Variable slope with the dose-effect curve to obtain IC50 value of enzymatic activity for each compound.
(§13) The calculation formula is as Y-Bottom+(Top-Bottom)/(1+10^((Log IC50−X)*HillSlope)).

IGF1R = IGF1R (Homo sapiens, UniProt P08069); assay: IGF1R kinase test (mobility variation analysis, Caliper EZ Reader); format: biochemical; conditions: kinase enzymatic activity, Table 1; read-out: EGFR IGF1R IC50
Chain of IGF1R (P08069 31-1367, species assumed): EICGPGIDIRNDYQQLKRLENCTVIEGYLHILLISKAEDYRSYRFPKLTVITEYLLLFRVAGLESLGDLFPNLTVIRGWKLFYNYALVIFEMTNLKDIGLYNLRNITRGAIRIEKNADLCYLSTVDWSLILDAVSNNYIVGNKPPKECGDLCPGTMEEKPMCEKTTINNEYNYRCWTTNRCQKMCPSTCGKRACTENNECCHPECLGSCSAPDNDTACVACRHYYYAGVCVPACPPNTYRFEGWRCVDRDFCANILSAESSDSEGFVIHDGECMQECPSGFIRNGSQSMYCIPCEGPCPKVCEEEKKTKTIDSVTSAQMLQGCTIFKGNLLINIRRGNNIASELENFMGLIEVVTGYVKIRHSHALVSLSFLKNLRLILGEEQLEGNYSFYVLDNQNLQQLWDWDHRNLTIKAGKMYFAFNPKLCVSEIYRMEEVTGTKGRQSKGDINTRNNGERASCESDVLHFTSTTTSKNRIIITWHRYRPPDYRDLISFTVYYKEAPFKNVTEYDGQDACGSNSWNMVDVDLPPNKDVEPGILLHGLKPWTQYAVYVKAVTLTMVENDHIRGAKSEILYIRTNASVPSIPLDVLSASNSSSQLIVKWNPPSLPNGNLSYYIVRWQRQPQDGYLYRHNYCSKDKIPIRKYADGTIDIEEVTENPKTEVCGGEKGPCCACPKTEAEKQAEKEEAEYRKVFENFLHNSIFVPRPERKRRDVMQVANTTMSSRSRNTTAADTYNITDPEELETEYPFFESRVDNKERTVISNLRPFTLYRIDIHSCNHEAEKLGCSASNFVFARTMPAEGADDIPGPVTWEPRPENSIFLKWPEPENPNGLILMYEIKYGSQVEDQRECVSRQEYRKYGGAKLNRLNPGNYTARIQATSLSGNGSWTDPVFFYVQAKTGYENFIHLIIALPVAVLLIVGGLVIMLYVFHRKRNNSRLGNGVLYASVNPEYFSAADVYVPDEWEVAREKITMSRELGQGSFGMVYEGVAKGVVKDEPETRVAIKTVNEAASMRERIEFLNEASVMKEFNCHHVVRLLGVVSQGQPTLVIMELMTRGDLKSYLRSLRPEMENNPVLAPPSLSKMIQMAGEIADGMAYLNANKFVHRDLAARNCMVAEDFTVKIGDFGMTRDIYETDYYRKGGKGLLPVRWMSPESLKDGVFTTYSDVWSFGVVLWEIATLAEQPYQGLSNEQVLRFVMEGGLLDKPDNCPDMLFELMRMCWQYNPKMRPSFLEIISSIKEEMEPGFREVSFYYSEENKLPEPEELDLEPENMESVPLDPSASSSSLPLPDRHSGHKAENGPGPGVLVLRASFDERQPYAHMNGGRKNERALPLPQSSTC
Protocol: as §1, §2
2. Preparation of compound concentration gradient: The test compound was tested with an initial concentration of 3000 nM (300 nM for some triple mutations and 100 nM for others), diluted in a 384 source plate (96-well plate for comparative compound 1 and compounds 1-38) to a 100% DMSO solution with 100-fold final concentration, and the compound is 3-fold diluted with Precision to 10 concentrations. A dispenser Echo 550 was used to transfer 250 nL 100-fold final concentration of the compound to the target plate OptiPlate-384F.
3. Prepare 2.5-fold final concentration (5-fold for comparative compound 1 and compounds 1-38) of kinase solution with 1×Kinase buffer. Following steps should also be carried out for comparative compound 1 and compounds 1-38: Add each prepared intermediate dilution compounds to the compound wells of 384-well plate respectively, and test the repeated wells of each concentration; add 5% DMSO of 5 plates into the negative control well and the positive control well respectively. Prepare 2.5-fold final concentration of kinase solution with 1×Kinase buffer.
as §4, §5, §6
7. Add 15 μL mixture of 5/3-fold (2.5-fold for comparative compound 1 and compounds 1-38) final concentration of ATP and substrate to start reaction.
as §7, §8, §9, §10, §11, §12, §13

[1] = target: Ba/F3 cells with EGFR Δ19del/T790M/C797S mutation gene stably overexpressed (Homo sapiens, UniProt P00533, T790M/C797S, cells depend on it, form not given); assay: Ba/F3-Δ19del/T790M/C797S cell proliferation assay (CellTiter Glo, 72 hours); format: cell-based; conditions: Table 2, read-out: EGFR Δ19del/T790M/C797S IC50
Protocol: Cell line: Ba/F3 cells with EGFR Δ19del/T790M/C797S mutation gene stably overexpressed named Ba/F3-Δ119del/T90M/C797S, and A431 and Ba/F3-EGFR wild-type cell line.
a) Centrifuge the growth cells in logarithmic phase at 1000 rpm for 5 minutes, resuspend the cells in culture medium, and then count the cells;
b) Inoculate the cells into a 96-well cell culture plate with a density of 2000 cells/well;
b) Incubate cells in an incubator for another 72 hours.
a) Take out the 96-well cell culture plate and add 50 μl CTG reagent (CellTiter Glo kit, promega, Cat #G7573);
b) Shake the plate for 2 minutes and let cool at room temperature for 10 minutes;
c) Read luminous signal value with PerkinElmer reader,
Analysis of Experimental Data
The data were analyzed by GraphPad Prism 6.0 software to obtain the fitting curve of compound activity.
Y=Min+(Max−Min)/(1+10^((Log IC50−X)*slope));
X: Logarithm of compound concentration; Y: luminous signal.

EGFR WT = EGFR WT (Homo sapiens, UniProt P00533); assay: EGFR WT kinase test (mobility variation analysis, Caliper EZ Reader); format: biochemical; conditions: kinase enzymatic activity, Table 1
Protocol: as §1, §2, §3, §4, §5, §6, §7, §8, §9, §10, §11, §12, §13

Molecule | IC50 (EGFRΔ19del/T790M/C797S) [nM] | IC50 (IGF1R) [nM] | GI50 [1] [nM] | IC50 (EGFR WT) [nM]
CCc1cc(Nc2ncc(Cl)c(Nc3ccc(-c4cnn5c4OCCC5)cc3P(C)(C)=O)n2)c(OC)cc1N1CCC(N2CCN(C)CC2)CC1 [Compound 7, (2-((5-Chloro-2-((5-ethyl-2-methoxy-4-(4-(4-methylpiperazin-1-yl)piperidin-1-yl)phenyl)amino)pyrimidin-4-yl)amino)-5-(6,7-dihydro-5H-pyrazolo[5,1-b][1,3]nitrox-3-yl)phenyl)dimethylphosphine oxide] | 0.5 | 187 | 46.2 | –
CCc1cc(Nc2ncc(Cl)c(Nc3ccc(-c4cncs4)cc3P(C)(C)=O)n2)c(OC)cc1N1CCC(N2CCN(C)CC2)CC1 [Compound 15, (2-((5-Chloro-2-((5-ethyl-2-methoxy-4-(4-(4-methylpiperazin-1-yl)piperidin-1-yl)phenyl)amino)pyrimidin-4-yl)amino)-5-(thiazol-5-yl)phenyl)dimethylphosphine oxide] | 0.3 | 66.5 | 16.1 | –
CCc1cc(Nc2ncc(Cl)c(Nc3ccc(-c4cnn5cnccc45)cc3P(C)(C)=O)n2)c(OC)cc1N1CCC(N2CCN(C)CC2)CC1 [Compound 23, (2-((5-Chloro-2-((5-ethyl-2-methoxy-4-(4-(4-methylpiperazin-1-yl)piperidin-1-yl)phenyl)amino)pyrimidin-4-yl)amino)-5-(pyrazolo[1,5-c]pyrimidin-3-yl)phenyl)dimethylphosphine oxide] | 0.5 | 261 | 42.9 | 18.9
CCc1cc(Nc2ncc(Cl)c(Nc3ccc(-c4cnc(C)nc4)cc3P(C)(C)=O)n2)c(OC)cc1N1CCC(N2CCN(C)CC2)CC1 [Compound 24, (2-((5-Chloro-2-((5-ethyl-2-methoxy-4-(4-(4-methylpiperazin-1-yl)piperidin-1-yl)phenyl)amino)pyrimidin-4-yl)amino)-5-(2-methylpyrimidin-5-yl)phenyl)dimethylphosphine oxide] | 0.7 | 264 | 44 | 66.9
CCc1cc(Nc2ncc(Cl)c(Nc3ccc(-c4nn(C)cc4C#N)cc3P(C)(C)=O)n2)c(OC)cc1N1CCC(N2CCN(C)CC2)CC1 [Compound 57] | 0.4 | 196 | 40.8 | 13.9
CCc1cc(Nc2ncc(Br)c(Nc3ccc(-c4cnn(C(F)F)n4)cc3P(C)(C)=O)n2)c(OC)cc1N1CCC(N2CCN(C)CC2)CC1 [Compound K-106, (2-((5-Bromo-2-((5-ethyl-2-methoxy-4-(4-(4-methylpiperazin-1-yl)piperidin-1-yl)phenyl)amino)pyrimidin-4-yl)amino)-5-(2-(difluoromethyl)-2H-1,2,3-triazol-4-yl)phenyl)dimethylphosphine oxide] | 0.5 | 56 | – | 17
(2-((5-Chloro-2-((5-ethyl-2-methoxy-4-(4-(4-methylpiperazin-1-yl)piperidin-1-yl)phenyl)amino)pyrimidin-4-yl)amino)-5-(3-ethoxy-5-methylisoxazol-4-yl)phenyl)dimethylphosphine oxide [Compound K-061] | 1.6 | 886 | – | 44
